Results published in patent US10898582B2, “Bi-functional allosteric protein-drug molecules for targeted therapy” (UNIVERSITY OF UTAH RESEARCH FOUNDATION, priority 2014, dated 2021).
One block for each compound: values may come before it.

Tests used:
[1] = system: MCF-7 breast cancer cells; assay: Viability of MCF-7 breast cancer cells, dose-dependent IC50; format: cell-based
Method: To test the therapeutic efficacy of the formulation of PTD-ABD-17-AAG in MCF-7 breast cancer cells, the IC50 value was determined in a dose-dependent manner. The IC50 value is a measure of how effective a drug or therapeutic is and is defined as the concentration required to inhibit a biological process or component of a biological process (e.g., enzyme, cell, cell receptor) in half. The PTD-ABD-17-AAG was prepared as described above (Example 1) and administered to cancer cells. MCF-7 cells were exposed to one of the following formulations: 1) PTD-ABD-17-AAG; 2) 17-AAG; or 3) PTD-ABD.

breast cancer cells = assay: Short-term (4 hours) treatment of breast cancer cells, dose-dependent IC50; format: cell-based; conditions: breast cancer cells exposed for 4 hours
Method: To examine whether the improved cellular uptake of 17-AAG by the PTD-ABD leads to enhanced efficacy of 17-AAG, breast cancer cells were exposed to 17-AAG or the PTD-ABD-17-AAG for 4 hours in a dose-dependent manner. […] Due to the facilitated uptake of 17-AAG bound to the PTD-ABD, the short-term treatment of 17-AAG at low concentrations can increase the cellular concentration of 17-AAG, which results in the enhanced anti-cancer efficacy of 17-AAG. Free 17-AAG was not sufficiently internalized into cells during the short incubation time because of the poor uptake kinetics of free 17-AAG.

MCF-7 cells = assay: Uptake kinetics of FITC-GM into MCF-7 cells; format: cell-based; conditions: 2 hours post-treatment
Method: Finally, 10 μg/ml of GM was sufficient to achieve internalization into 100% of the cell population when delivered by the PTD-ABD protein (FIG. 3c).

microtubules = conditions: cited from earlier work

- IC50 [1]: 15 µM
- IC50 value (breast cancer cells): approximately 25 μg/ml
Structure (SMILES): C=CCNC1=C2C[C@@H](C)C[C@H](OC)[C@H](O)[C@@H](C)/C=C(\C)[C@H](OC(N)=O)[C@@H](OC)/C=C\C=C(/C)C(=O)NC(=CC1=O)C2=O [17-AAG, 17-allylamino-17-demethoxygeldanamycin]

Structure (SMILES): COC1=C2C[C@@H](C)C[C@H](OC)[C@H](O)[C@@H](C)/C=C(\C)[C@H](OC(N)=O)[C@@H](OC)/C=C\C=C(/C)C(=O)NC(=CC1=O)C2=O [GM, Geldanamycin]
- cell population positive to FITC (GM internalized) (MCF-7 cells): 60%

Structure (SMILES): CC(=O)O[C@H]1C(=O)[C@@]2(C)[C@H]([C@H](OC(=O)c3ccccc3)[C@]3(O)C[C@H](OC(=O)[C@H](O)[C@@H](NC(=O)c4ccccc4)c4ccccc4)C(C)=C1C3(C)C)[C@]1(OC(C)=O)CO[C@@H]1C[C@@H]2O [PTX, paclitaxel]
- binding affinity Ka to microtubules (microtubules): ~6e+07 M⁻¹
